Assay results: EP0580252A2, “Improvements in or relating to pectin methyl esterase” (QUEST INTERNATIONAL B.V., priority 1992, dated 1994)

Experiments:
bacterial PMEs = test: Inhibition test with tyrosine selective inhibitor N-acetyl-imidazole; format: biochemical; conditions: NAI 1.4mg.100 ml; 1% pectin; enzyme 0.005-0.088%
Protocol: (§1) Bacterial and plant derived PMEs were tested for inhibition by N-acetyl-imidazole (NAI), a tyrosine selective inhibitor.
(§2) Inhibition by N-acetyl-imidazole was carried out in three different ways: by addition of the NAI to enzyme solution, to pectin solution, and to mixed enzyme and substrate. Typically we used 1% pectin (5% for papain also), enzyme concentrations of 0.005-0.088% and NAI concentrations of 1.4mg.100 ml.

[1] = tested on: WGL (wheat germ lipase) derived PME (pectin methyl esterase); test: as above; format: biochemical; conditions: NAI 1.4mg.100 ml; 1% pectin; enzyme 0.005-0.088%
Protocol: as §1, §2

tomato PME = test: as above; format: biochemical; conditions: NAI 1.4mg.100 ml; 1% pectin; enzyme 0.005-0.088%
Protocol: as §1, §2

orange PME = test: as above; format: biochemical; conditions: NAI 1.4mg.100 ml; 1% pectin; enzyme 0.005-0.088%
Protocol: as §1, §2

[2] = tested on: papain derived PME (pectin methyl esterase); test: as above; format: biochemical, papaya; conditions: NAI 1.4mg.100 ml; 1% pectin (5% for papain also); enzyme 0.005-0.088%
Protocol: as §1, §2

[3] = tested on: ficin derived PME (pectin methyl esterase); test: as above; format: biochemical, fig; conditions: NAI 1.4mg.100 ml; 1% pectin; enzyme 0.005-0.088%
Protocol: as §1, §2

[4] = tested on: bromelain derived PME (pectin methyl esterase); test: as above; format: biochemical, bromelard; conditions: NAI 1.4mg.100 ml; 1% pectin; enzyme 0.005-0.088%
Protocol: as §1, §2

papain PME = test: Effect of methanol (reaction product) on PME activity; format: biochemical, papaya; conditions: methanol concentration not stated
[5] = tested on: PMEs (papain PME, ficin PME and other known plant PMEs); test: Inhibition of PME activity by galacturonic acid; format: biochemical; conditions: up to concentrations of 25 gl⁻¹

CC(=O)n1ccnc1 [NAI, N-acetyl-imidazole]
inhibition by NAI (bacterial PMEs): inhibited
inhibition by NAI [1]: not to be inhibited
inhibition by NAI (tomato PME): inhibited
inhibition by NAI (orange PME): inhibited
inhibition by NAI [2]: not to be inhibited
inhibition by NAI [3]: not to be inhibited
inhibition by NAI [4]: not to be inhibited

CO [methanol]
inhibition by methanol (papain PME; 1% pectin): inhibited
inhibition by methanol (papain PME; 5% pectin): hardly noticed
inhibition by methanol (papain PME): under certain conditions is inhibited and YES

galacturonic acid
inhibition by galacturonic acid [5]: None of the PMEs is inhibited
